# According to PMC9166630, “SAR Probing of KX2-391 Provided Analogues With Juxtaposed Activity Profile Against Major Oncogenic Kinases” (Frontiers in Oncology, 2022):
# Columns and labels:
# [1] = tested on: purified bovine tubulin; experiment: Tubulin polymerization assay (turbidimetric); type: biochemical; settings: theoretical concentration 10 µM, OD 340 nm, 60 min
# Protocol: The effect of compound 4e on tubulin polymerization was investigated using the cell-free assay which assesses the assembly of purified bovine tubulin by a turbidometric method (Figure 5). Tubulin polymerization results in increased turbidity, which is measured as an increase in the optical density (OD).
# Figure 5 Tubulin polymerization assay for compound 4e at 10 µM compared to paclitaxel (10 µM) and KX2-391 (10 µM) as references, while DMSO (1% v/v) was used as a vehicle control. Purified bovine tubulin and GTP were mixed in a 96-well plate. The polymerization reaction was initiated by warming the solution from 4°C to 37°C. The effect on tubulin assembly was monitored by measuring the optical density (OD) at 340 nm every 30 seconds over 60 min period. The results represent the mean for three separate experiments.
# The assembly of purified bovine tubulin was monitored using the Tubulin Polymerization Assay kit, BK006 (Cytoskeleton Inc., Denver, CO, USA). The assay was carried out in accordance with the manufacturer’s instructions in the assay kit manual using the standard assay conditions. The values reported represent the average values from two independent assays. […] Therefore, tubulin assembly was monitored turbidimetrically at 340 nm at 37°C in a Spectramax 340 PC spectrophotometer (Molecular Devices, Sunnyvale, CA, USA). The absorbance was measured at 30 s intervals for 60 min.
# [2] = target: T1, EphA1 (Homo sapiens, UniProt P21709); experiment: PamChip tyrosine kinase microarray, EphA1; type: biochemical; settings: 4e 0.1 µM, HL60 lysate
# T1 construct: endogenous in cells; host or cells: HL60 lysate
# T1 sequence (P21709 26-976): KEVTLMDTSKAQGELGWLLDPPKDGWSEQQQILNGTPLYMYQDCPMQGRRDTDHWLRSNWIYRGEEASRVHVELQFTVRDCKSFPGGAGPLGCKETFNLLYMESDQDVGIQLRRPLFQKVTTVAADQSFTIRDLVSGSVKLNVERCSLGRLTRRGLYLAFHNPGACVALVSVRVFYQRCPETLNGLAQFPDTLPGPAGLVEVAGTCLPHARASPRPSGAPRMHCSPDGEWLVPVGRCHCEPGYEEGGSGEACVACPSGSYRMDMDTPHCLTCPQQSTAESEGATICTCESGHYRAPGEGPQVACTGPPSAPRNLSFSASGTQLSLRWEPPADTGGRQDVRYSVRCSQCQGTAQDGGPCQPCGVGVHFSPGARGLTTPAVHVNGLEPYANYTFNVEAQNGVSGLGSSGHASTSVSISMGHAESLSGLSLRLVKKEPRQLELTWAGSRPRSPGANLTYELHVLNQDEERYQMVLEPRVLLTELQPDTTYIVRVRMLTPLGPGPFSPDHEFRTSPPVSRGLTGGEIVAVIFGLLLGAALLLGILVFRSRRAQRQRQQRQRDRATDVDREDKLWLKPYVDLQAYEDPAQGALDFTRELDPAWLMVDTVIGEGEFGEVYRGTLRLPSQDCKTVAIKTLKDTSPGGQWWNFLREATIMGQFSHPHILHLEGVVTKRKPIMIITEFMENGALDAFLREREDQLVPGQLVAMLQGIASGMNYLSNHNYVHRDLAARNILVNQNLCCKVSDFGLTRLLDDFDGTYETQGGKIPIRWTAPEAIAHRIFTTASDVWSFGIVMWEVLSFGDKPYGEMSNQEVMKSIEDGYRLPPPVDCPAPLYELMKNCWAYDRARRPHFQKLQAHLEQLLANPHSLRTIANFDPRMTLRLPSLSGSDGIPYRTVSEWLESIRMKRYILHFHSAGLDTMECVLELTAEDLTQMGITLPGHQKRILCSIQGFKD
# Protocol: (§1) The changes in kinase activities induced by treatment with 4e were monitored within the HL60 cell lines using PamGene’s (Hertogenbosch, Netherlands) PamChip® peptide microarray profiler, which quantifies the activities of 144 tyrosine kinases (YK) ([29], [30]) (Figure 7). Results are provided as a log fold change (LFC) heatmap and Mean Kinase Statistic. From the LFC it is apparent that compound 4e, at a concentration of 0.1 µM, induced sizable changes to the activity of several kinases within the cell signaling YK profile (Figure 7A).
# (§2) An Upstream Kinase tool was used to generate a putative list of kinases responsible for phosphorylating the phospho-sites on the PamChip (Figure 7B) ([31]). It is an interpretation and is highly dependent on the contents of the underlying phosphorylation databases. A Kinase Score was used for ranking kinases based on their significance and specificity in terms of the set of peptides used for the corresponding kinase. Kinase Statistics indicates the overall change of the peptide set that represents the kinase. Kinase statistics value <0 indicates lower kinase activity in the compound spiked lysate and vice versa ([32], [33]). Table 5 lists the 20 most changed kinases within treated HL60 cell lysates by 0.1 μM 4e, ranked according to their Kinase Score.
# (§3) The compound 4e was spiked into HL60 cell lysate at different concentrations (0.001, 0.01, 0.1, 1, 10 and 50 μM). In addition, DMSO was also spiked in HL60 lysate at low concentration (2% v/v) as control. Samples were profiled on PamGene’s Tyrosine Kinase (PTK) arrays in technical replicates, covering a total of 196 phosphorylation sites. Frozen HL60 cultured cell pellet was sent to PamGene. At PamGene, cells were lysed using a lysis buffer and proteases inhibitors cocktail. Protein concentration was measured using standard Bradford assay as per PamGene SOPs. These lysates were further used for generating the PTK activity profiles. For spiking, 4e was received as powder form and dissolved in DMSO at PamGene facility followed by storing at -20°C in small aliquots. PamGene used its in-house bioinformatics toolbox in combination with other methods to generate hypotheses of signaling pathways.
# [3] = tested on: TXK; experiment: PamChip tyrosine kinase microarray, TXK; type: biochemical, human; settings: 4e 0.1 µM, HL60 lysate
# Protocol: as §1, §2, §3
smiles,measurement,setting,value
"O=C(Cc1ccc(NC(=O)c2cccc(Cl)c2)cc1)NCc1ccccc1 [Compound 4e, N-(4-(2-(benzylamino)-2-oxoethyl)phenyl)-3-chlorobenzamide]",effect on tubulin polymerization,[1],did not affect the tubulin polymerization
same,Mean Final Score,[2],1.8401
same,Mean Kinase Statistic,[2],-0.6954
same,Mean Significance Score,[2],1.1254
same,Mean Specificity Score,[2],0.7147
same,Mean Final Score,[3],1.9145
same,Mean Kinase Statistic,[3],-0.5527
same,Mean Significance Score,[3],1.2373
same,Mean Specificity Score,[3],0.6772
